In patent publication US10316021B2, “Heteroarylphenoxy benzamide kappa opioid ligands” (Pfizer Inc., priority 2016, dated 2019):
pKi: −log10 of the molar value. Entries after “also recorded” stand apart in the source; their conditions may differ. Read-outs that look alike come from different tables or passages of the source.

Experiments:
[1] = biological target: T1, human kappa opioid receptor (hKOR) (Homo sapiens, UniProt P41145); experiment: Kappa radioligand binding assay ([3H]diprenorphine, CHO cell membranes); conditions: for Selectivity hMOR/hKOR: selectivity ratio calculated by dividing the hMOR Ki by the hKOR Ki
T1 construct: expressed in transfected cells; host or cells: CHO cells
T1 sequence (P41145 whole entry): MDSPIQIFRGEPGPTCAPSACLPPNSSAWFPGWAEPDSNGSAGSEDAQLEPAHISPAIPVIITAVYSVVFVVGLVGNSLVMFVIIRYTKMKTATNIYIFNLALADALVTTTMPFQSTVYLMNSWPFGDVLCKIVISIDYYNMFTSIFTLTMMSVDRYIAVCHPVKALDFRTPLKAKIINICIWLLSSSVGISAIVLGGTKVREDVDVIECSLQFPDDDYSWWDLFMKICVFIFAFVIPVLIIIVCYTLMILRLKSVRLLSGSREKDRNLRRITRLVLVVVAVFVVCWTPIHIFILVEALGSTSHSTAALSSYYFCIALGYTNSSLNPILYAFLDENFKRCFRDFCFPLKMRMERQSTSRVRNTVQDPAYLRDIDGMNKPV
Method: (§1) Kappa and Mu Radioligand Binding Assay:
(§2) Binding assays on membranes from CHO cells expressing human kappa or mu opioid receptors were performed according to standard procedures. Frozen cell paste was homogenized in 50 mM Tris HCl buffer (pH 7.4 @ 4 degrees C.) containing 2.0 mM MgCl2 using a Polytron and spun in a centrifuge at 40,000 g for ten minutes. The final pellet was resuspended in assay buffer (50 mM Tris HCl buffer, pH 7.4, containing 1 mM EDTA, 5 mM MgCl2). Incubations were initiated by the addition of membranes to 96-well plates containing test drugs and [^3H]diprenorphine (0.6 nM final concentration for kappa opioid receptor and 0.5 nM final concentration for mu) in a final volume of 250 μl. Non-specific binding was determined by radioligand binding in the presence of a saturating concentration of naltrexone (10 μM). After a one hour incubation period at room temperature, assay samples were rapidly filtered through PEI coated, GF/B fired Unifilter plates (PerkinElmer) and rinsed with ice-cold 50 mM Tris buffer (pH 7.4). Membrane bound [^3H]diprenorphine levels were determined by liquid scintillation counting of the filterplates in Ecolume scintillation fluid. The IC50 value (concentration at which 50% inhibition of specific binding occurs) was calculated using a logistic 4 parameter fit model of the concentration-response data. Ki values were calculated according to the Cheng Prusoff equation, Ki=IC50/(1+(L/Kd)), where L is the concentration of the radioligand used in the experiment and the Kd value is the dissociation constant for the radioligand (determined previously by saturation analysis).

[2] = biological target: T2, human mu opioid receptor (hMOR) (Homo sapiens, UniProt P35372); experiment: Mu radioligand binding assay ([3H]diprenorphine, CHO cell membranes)
T2 construct: expressed in transfected cells; host or cells: CHO cells
T2 sequence (P35372 whole entry): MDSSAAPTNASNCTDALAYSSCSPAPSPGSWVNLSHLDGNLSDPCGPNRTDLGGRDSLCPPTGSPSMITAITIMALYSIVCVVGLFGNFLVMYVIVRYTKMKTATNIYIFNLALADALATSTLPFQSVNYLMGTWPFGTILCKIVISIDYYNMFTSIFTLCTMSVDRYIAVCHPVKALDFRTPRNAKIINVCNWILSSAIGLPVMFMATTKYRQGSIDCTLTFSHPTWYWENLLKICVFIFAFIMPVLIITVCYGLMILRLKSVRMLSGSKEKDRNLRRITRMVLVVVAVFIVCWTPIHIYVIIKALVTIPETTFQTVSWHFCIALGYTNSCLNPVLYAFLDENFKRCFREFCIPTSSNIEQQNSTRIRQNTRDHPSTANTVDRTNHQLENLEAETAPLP
Method: as §1
as §2, with “The IC50 value (concentration at which 50% inhibition of specific binding occurs) was calculated using a logistic 4 parameter fit model of the concentration-response data.” left out

[3] = radioligand binding, [3H]diprenorphine, read-out: hKOR Ki
[4] = radioligand binding, [3H]diprenorphine, read-out: hMOR Ki
[5] = Table 19, geometric mean of 2-6 determinations unless otherwise indicated (Example 3: >=7), read-out: hKOR binding assay Ki
[6] = Table 19, geometric mean of 2-6 determinations unless otherwise indicated (Example 3: >=7), read-out: hMOR binding assay Ki
[7] = Table 20, radioligand binding, read-out: hKOR binding assay Ki
[8] = Table 20, radioligand binding, read-out: hMOR binding assay Ki

Work on `COc1nn(C)cc1C1COCCN1Cc1ccc(Oc2ccc(C(N)=O)cc2F)cc1` (single isomer, unassigned) [enantiomer of Example 20, 3-fluoro-4-(4-{[3-(3-methoxy-1-methyl-1H-pyrazol-4-yl)morpholin-4-yl]methyl}phenoxy)benzamide] yielded a pKi [1, 3] of 6.84 and a pKi [2, 4] of less than 6.25.
`COc1nn(C)cc1C1CCCCN1Cc1ccc(Oc2ccc(C(N)=O)cc2)cc1` (single isomer, unassigned) [enantiomer of Example 21, 4-(4-{[2-(3-methoxy-1-methyl-1H-pyrazol-4-yl)piperidin-1-yl]methyl}phenoxy)benzamide] gave a pKi [1, 3] of 7.81 and a pKi [2, 4] of 6.87.
`COc1nn(C)cc1C1COCCN1Cc1ccc(Oc2ccc(C(N)=O)cc2)c(F)c1` (single isomer, unassigned) [enantiomer of Example 22, 4-(2-fluoro-4-{[3-(3-methoxy-1-methyl-1H-pyrazol-4-yl)morpholin-4-yl]methyl}phenoxy)benzamide] gave a pKi [1, 3] of 6.58 and a pKi [2, 4] of less than 6.25.
Work on `COc1nn(C)cc1C1COCCN1Cc1ccc(Oc2ccc(C(N)=O)cc2)cc1` (single isomer, unassigned) [enantiomer of Example 23, 4-(4-{[3-(3-methoxy-1-methyl-1H-pyrazol-4-yl)morpholin-4-yl]methyl}phenoxy)benzamide] yielded a pKi [1, 3] of 6.65 and a pKi [2, 4] of less than 6.25.
`COc1nn(C)cc1C1CCCN1Cc1ccc(Oc2ccc(C(N)=O)cc2)c(F)c1` (single isomer, unassigned) [enantiomer of Example 32, 4-(2-fluoro-4-{[2-(3-methoxy-1-methyl-1H-pyrazol-4-yl)pyrrolidin-1-yl]methyl}phenoxy)benzamide] showed a pKi [1, 3] of 9.20 and a pKi [2, 4] of 7.86.
`COc1nn(C)cc1C1CCCN1Cc1ccc(Oc2ccc(C(N)=O)c(O)c2)cc1` (single isomer, unassigned) [enantiomer of Example 33, 2-hydroxy-4-(4-{[2-(3-methoxy-1-methyl-1H-pyrazol-4-yl)pyrrolidin-1-yl]methyl}phenoxy)benzamide] was tested, and the pKi [1, 3] was 7.54 and the pKi [2, 4] was 6.51.
With `Cc1c(C2CCCN2Cc2ccc(Oc3ccc(C(N)=O)cc3F)cc2)cnn1C` (single isomer, unassigned) [enantiomer of Example 35, 4-(4-{[2-(1,5-dimethyl-1H-pyrazol-4-yl)pyrrolidin-1-yl]methyl}phenoxy)-3-fluorobenzamide] the pKi [1, 3] was 7.03 and the pKi [2, 4] was 6.61.
`Cc1nn(C)nc1C1CCCN1Cc1ccc(Oc2ccc(C(N)=O)cc2)cc1` (single isomer, unassigned) [enantiomer of Example 38, 4-(4-{[2-(2,5-dimethyl-2H-1,2,3-triazol-4-yl)pyrrolidin-1-yl]methyl}phenoxy)benzamide] was tested, and the pKi [1, 3] was less than 6.92 and the pKi [2, 4] was 6.60.
In the case of `Cc1nn(C)nc1C1CCCN1Cc1ccc(Oc2ccc(C(N)=O)cc2)c(F)c1` (single isomer, unassigned) [enantiomer of Example 39, 4-(4-{[2-(2,5-dimethyl-2H-1,2,3-triazol-4-yl)pyrrolidin-1-yl]methyl}-2-fluorophenoxy)benzamide], the pKi [1, 3] was 7.13 and the pKi [2, 4] was 6.88.
Work on `Cc1nsc(C2CCCN2Cc2ccc(Oc3ccc(C(N)=O)cc3)cc2)n1` (single isomer, unassigned) [enantiomer of Example 41, 4-(4-{[2-(3-methyl-1,2,4-thiadiazol-5-yl)pyrrolidin-1-yl]methyl}phenoxy)benzamide] yielded a pKi [1, 3] of less than 6.41 and a pKi [2, 4] of less than 6.25.
Molecule `COc1cc(C2CCCN2Cc2ccc(Oc3ccc(C(N)=O)cc3)cc2)n(C)n1` (single isomer, unassigned) [enantiomer of Example 46, 4-(4-{[2-(3-methoxy-1-methyl-1H-pyrazol-5-yl)pyrrolidin-1-yl]methyl}phenoxy)benzamide] has a pKi [1, 3] of 6.95 and a pKi [2, 4] of 6.92.
`Cc1nn(C)cc1C1CCCN1Cc1ccc(Oc2ccc(C(N)=O)cc2)c(F)c1` (single isomer, unassigned; (+)) [Example 2, (+)-4-(4-{[2-(1,3-Dimethyl-1H-pyrazol-4-yl)pyrrolidin-1-yl]methyl}-2-fluorophenoxy)benzamide] showed a pKi [1, 5] of 8.40 and a pKi [2, 6] of 7.56.
With `COc1nn(C)cc1C1CCCN1Cc1ccc(Oc2ccc(C(N)=O)cc2F)cc1` (single isomer, unassigned; (+)) [Example 9, (+)-3-Fluoro-4-(4-{[2-(3-methoxy-1-methyl-1H-pyrazol-4-yl)pyrrolidin-1-yl]methyl}phenoxy)benzamide] the pKi [1, 5] was 7.65 and the pKi [2, 6] was less than 6.45.
`COc1n[nH]cc1C1CCCN1Cc1ccc(Oc2ccc(C(N)=O)cc2)cc1` (single isomer, unassigned; (+)) [Example 15, (+)-4-(4-{[2-(3-Methoxy-1H-pyrazol-4-yl)pyrrolidin-1-yl]methyl}phenoxy)benzamide] was tested, and the pKi [1, 5] was 7.63 and the pKi [2, 6] was 6.82.
In the case of `Cc1nn(C)cc1C1CCCN1Cc1ccc(Oc2ccc(C(N)=O)c(O)c2)cc1` (single isomer, unassigned; (+)) [Example 17, (+)-4-(4-{[2-(1,3-Dimethyl-1H-pyrazol-4-yl)pyrrolidin-1-yl]methyl}phenoxy)-2-hydroxybenzamide], the pKi [1, 5] was 7.57 and the pKi [2, 6] was 6.97.
`Cc1nn(C)cc1C1CCCN1Cc1ccc(Oc2ccc(C(N)=O)cc2)c(F)c1` (single isomer, unassigned; (-)) [Example 3, (−)-4-(4-{[2-(1,3-Dimethyl-1H-pyrazol-4-yl)pyrrolidin-1-yl]methyl}-2-fluorophenoxy)benzamide] gave a pKi [1, 5] of 9.34 and a pKi [2, 6] of 7.77.
With `COc1n[nH]cc1C1CCCN1Cc1ccc(Oc2ccc(C(N)=O)cc2)cc1` (single isomer, unassigned; (-)) [Example 14, (−)-4-(4-{[2-(3-Methoxy-1H-pyrazol-4-yl)pyrrolidin-1-yl]methyl}phenoxy)benzamide] the pKi [1, 5] was 8.22 and the pKi [2, 6] was 7.50.
For `Cc1nn(C)cc1C1CCCN1Cc1ccc(Oc2ccc(C(N)=O)c(O)c2)cc1` (single isomer, unassigned; (-)) [Example 18, (−)-4-(4-{[2-(1,3-Dimethyl-1H-pyrazol-4-yl)pyrrolidin-1-yl]methyl}phenoxy)-2-hydroxybenzamide], the pKi [1, 5] was 8.75 and the pKi [2, 6] was 7.20.
In the case of `Cc1nc([C@@H]2CCCN2Cc2ccc(Oc3ccc(C(N)=O)cc3)cc2)ns1` [Example 10, 4-(4-{[(2S)-2-(5-Methyl-1,2,4-thiadiazol-3-yl)pyrrolidin-1-yl]methyl}phenoxy)benzamide], the “KOR potency, in words” value [1] was “good potency”, the “selectivity for KOR over MOR, in words” value [1] was “good potency and selectivity; also recorded: more selective than the phenyl examples, Comparators A and B” and the pKi [1, 5] was 8.40. For the same molecule, the pKi [1, 7] was 8.40, the “Selectivity hMOR/hKOR” value [1] was 54 and the pKi [2, 6] was 6.66. For the same molecule, the pKi [2, 8] was 6.66.
With `Cn1ccc([C@@H]2CCCN2Cc2ccc(Oc3ccc(C(N)=O)cc3F)cc2)n1` [Example 19, 3-fluoro-4-(4-{[(2S)-2-(1-methyl-1H-pyrazol-3-yl)pyrrolidin-1-yl]methyl}phenoxy)benzamide] the pKi [1, 5] was 9.00 and the pKi [2, 6] was 7.87.
With `Cc1cc([C@@H]2CCCN2Cc2ccc(Oc3ccc(C(N)=O)c(O)c3)cc2)n(C)n1` [Example 27, 4-(4-{[(2S)-2-(1,3-dimethyl-1H-pyrazol-5-yl)pyrrolidin-1-yl]methyl}phenoxy)-2-hydroxybenzamide] the pKi [1, 5] was 8.68 and the pKi [2, 6] was 6.92.
Work on `Cn1ccc([C@@H]2CCCN2Cc2ccc(Oc3ccc(C(N)=O)c(O)c3)cc2)n1` [Example 34, 2-hydroxy-4-(4-{[(2S)-2-(1-methyl-1H-pyrazol-3-yl)pyrrolidin-1-yl]methyl}phenoxy) benzamide] yielded a pKi [1, 5] of 9.29 and a pKi [2, 6] of 8.40.
In the case of `Cc1cc(C2CCCN2Cc2ccc(Oc3ccc(C(N)=O)cc3F)cc2)no1` (stereo not shown) [Example 40], the “KOR potency, in words” value [1] was “low KOR potency”, the pKi [1, 5] was 6.86 and the pKi [1, 7] was 6.86. The “Selectivity hMOR/hKOR” value [1] was 2.2, the pKi [2, 6] was 6.52 and the pKi [2, 8] was 6.52.
